Results published in patent US20170153247A1, “METHOD FOR RISK ASSESSMENT OF ALLERGIC REACTION” (Excelsior Bio-System Incorporation, priority 2015, published 2017).

What was measured:
[1] = system: binding between IgE in serum sample U and crab antigens; assay: IgE inhibition experiment, conventional protein array spotted with crab antigens; design: species or system human
Experimental: (§1) The sample serum is diluted with diluent buffer containing adequate amount of BSA, no-fat milk, and Tween-20. The peptide array of the present embodiment is incubated with each serum sample respectively at 37° C. for 1 hour. A wash buffer containing Tween-20 is added to the reaction area of the peptide array to wash out extra serum. Anti-human IgE antibody labeled with Cy3 is added to the reaction area of the peptide array. The anti-human IgE with Cy3 binds on antibodies in the sample serum that binds to the peptide probes in the reaction area. The peptide array is then incubated
(§2) at 37° C. for 1 hour in darkness. The diluent, wash buffer, and anti-human IgE with Cy3 is provided by EBS Immunoflourescence Specific IgE Assay. A laser scanner with FD532 nm detector is utilized to scan the peptide array after incubation. The intensities of FD532 nm of each peptide probe on the peptide array can be obtained. For protein arrays the positive values are highlighted, while for peptide arrays the numbers (No.) of the peptide probes showing positive values are listed. […] For the peptide array of the present embodiment, although all of the peptide probes are derived from antigens of house dust mites, only a number of probes are bound to the serum samples and generate positive results.
(§3) Generally, the serum sample U is incubated with different concentration Der-p10-17 peptide (#60) for 30 minutes, and then serum sample U is transferred on conventional protein arrays spotted with crab, shrimp, dust mite and house dust mite antigens. In each of these arrays, different reaction blocks represent serum sample U incubated with different concentrations of Der-p10-17 (#60), where X1 is serum sample U incubated with the original concentration of Der-p10-17 (#60). X2 is serum sample U incubated with 2-fold dilution of the original concentration, X4 is serum sample U incubated with a 4-fold dilution and X8 is serum sample U incubated with an 8-fold dilution. The experiment protocol in Table 5A-5D and FIGS. 12A-12D may refer to the IgE immunofluorescence assay used in Table 4. The F532 nm intensity value of crabs, shrimps, dust mites, and house mites are shown respectively. Various concentrations of Der-p10-17 peptide (#60) are tested to evaluate the dependence of inhibition on the inhibitor peptide concentration. The results of the IgE inhibition experiments are presented in FIGS. 12A-12D and Tables 5A-5D.

[2] = system: binding between IgE in serum sample U and shrimp antigens; assay: IgE inhibition experiment, conventional protein array spotted with shrimp antigens; design: species or system human
Experimental: as §1, §2, §3

[3] = system: binding between IgE in serum sample U and dust mite antigens; assay: IgE inhibition experiment, conventional protein array spotted with dust mite antigens; design: species or system human
Experimental: (§4) The sample serum is diluted with diluent buffer containing adequate amount of BSA, no-fat milk, and Tween-20. The peptide array of the present embodiment is incubated with each serum sample respectively at 37° C. for 1 hour. A wash buffer containing Tween-20 is added to the reaction area of the peptide array to wash out extra serum. Anti-human IgE antibody labeled with Cy3 is added to the reaction area of the peptide array. The anti-human IgE with Cy3 binds on antibodies in the sample serum that binds to the peptide probes in the reaction area. The peptide array is then incubated at 37° C. for 1 hour in darkness. The diluent, wash buffer, and anti-human IgE with Cy3 is provided by EBS Immunoflourescence Specific IgE Assay. A laser scanner with FD532 nm detector is utilized to scan the peptide array after incubation. The intensities of FD532 nm of each peptide probe on the peptide array can be obtained. For protein arrays the positive values are highlighted, while for peptide arrays the numbers (No.) of the peptide probes showing positive values are listed. […] For the peptide array of the present embodiment, although all of the peptide probes are derived from antigens of house dust mites, only a number of probes are bound to the serum samples and generate positive results. Generally, the serum sample U is incubated with different concentration Der-p10-17 peptide (#60) for 30 minutes, and then serum sample U is transferred on conventional protein arrays spotted with crab, shrimp, dust mite and house dust mite antigens. In each of these arrays, different reaction blocks represent serum sample U incubated with different concentrations of Der-p10-17 (#60), where X1 is serum sample U incubated with the original concentration of Der-p10-17 (#60). X2 is serum sample U incubated with 2-fold dilution of the original concentration, X4 is serum sample U incubated with a 4-fold dilution and X8 is serum sample U incubated with an 8-fold dilution. The experiment protocol in Table 5A-5D and FIGS. 12A-12D may refer to the IgE immunofluorescence assay used in Table 4. The […] nm intensity value of crabs, shrimps, dust mites, and house mites are shown respectively. Various concentrations of Der-p10-17 peptide (#60) are tested to evaluate the dependence of inhibition on the inhibitor peptide concentration. The results of the IgE inhibition experiments are presented in FIGS. 12A-12D and Tables 5A-5D.

[4] = system: binding between IgE in serum sample U and house dust mite antigens; assay: IgE inhibition experiment, conventional protein array spotted with house dust mite antigens; design: species or system human
Experimental: as §4

[5] = system: specific IgE in serum samples; assay: Serum samples analysis on peptide array (IgE immunofluorescence assay); assay type: binding, human
Text: A plurality of peptide probes are synthesized according to each of the above peptide fragments of Der p1, Der p2, and Der p10. Theses synthesized peptide probes are spotted on a solid surface to construct a peptide array. The peptide array includes at least one reaction area, and each reaction area includes at least one reaction block. […] The peptide array of FIG. 11 includes at least one reaction area, and each reaction area includes 4 reaction blocks, namely R1, R2, R3, and R4.
Serum samples are used and labeled to evaluate the peptide array of the present embodiment. The labeled serum samples include 23 positive serum samples obtained from patients showing allergy symptoms, one negative serum sample, and one blank. Conventional protein arrays are also used in the test, probes for which being allergens extracted from allergenic substances derived from natural origins, such as crabs, shrimps, dust mites (Dermatophagoides farinae), house dust mites and storage mites (Blomia tropicalis). Group 10 allergens (tropomyosins) have been assumed to be a major cause of cross-reactivity between house dust mites and other invertebrates.
The sample serum is diluted with diluent buffer containing adequate amount of BSA, no-fat milk, and Tween-20. The peptide array of the present embodiment is incubated with each serum sample respectively at 37° C. for 1 hour. […]

[6] = Block 2-X8, serum sample U pre-incubated 30 minutes with 8-fold dilution of peptide
[7] = Block 3-X4, 4-fold dilution of peptide
[8] = Block 4-X2, 2-fold dilution of peptide
[9] = Block 5-X1, original concentration of peptide

F532 nm intensity value, crabs ([1]; Block 2-X8): 14893
F532 nm intensity value, crabs [1, 6]: 15148
F532 nm intensity value, crabs ([1]; Block 3-X4, serum sample U pre-incubated with 4-fold dilution of peptide): 11803
F532 nm intensity value, crabs ([1]; Block 4-X2, serum sample U pre-incubated with 2-fold dilution of peptide): 10695
F532 nm intensity value, crabs ([1]; Block 5-X1, serum sample U pre-incubated with original concentration of peptide): 13067
F532 nm intensity value, shrimps ([2]; Block 2-X8): 16678
F532 nm intensity value, shrimps [2, 6]: 17902
F532 nm intensity value, shrimps [2, 7]: 14759
F532 nm intensity value, shrimps [2, 8]: 14481
F532 nm intensity value, shrimps [2, 9]: 15396
F532 nm intensity value, dust mites ([3]; Block 2-X8): 5767
F532 nm intensity value, dust mites [3, 6]: 5979
F532 nm intensity value, dust mites [3, 7]: 4767
F532 nm intensity value, dust mites [3, 8]: 4428
F532 nm intensity value, dust mites [3, 9]: 5475
F532 nm intensity value, house dust mites [4, 6]: 3288
F532 nm intensity value, house dust mites [4, 7]: 3247
F532 nm intensity value, house dust mites [4, 8]: 3659
F532 nm intensity value, house dust mites [4, 9]: 4288
binding of peptide probe to IgE in serum samples ([5]; peptide array): can bind to IgE in serum samples
Sequence: ELDQTFAELTGY [Der-p10-17]
inhibition of IgE cross-linking / decrease of intensity values, crab ([1]; serum sample U): can inhibit the IgE cross-linking between shrimp and crab
inhibition of IgE cross-linking / decrease of intensity values, shrimp ([2]; serum sample U): can inhibit the IgE cross-linking between shrimp and crab
inhibition of binding between IgE and antigens extracted from natural house dust mites ([4]; serum sample U): can inhibit the binding between IgE and antigens extracted from natural house dust mites
reactivity of serum sample U on the peptide array ([5]; serum sample U, Table 4): reactive
